# In patent US20130345419A1, “AZOLE DERIVATIVE” (TAISHO PHARMACEUTICAL CO., LTD., priority 2011, published 2013):
# Target: T1, human recombinant FKBP12 (Homo sapiens, UniProt P62942)
# T1 construct: purchased Sigma F-5398
# Test: Test 1: immunophilin FKBP12 rotamase (peptidylprolyl isomerase) inhibiting activity
# Format: biochemical
# Details: 12 nM human recombinant FKBP12, substrate succinyl-Ala-Phe-Pro-Phe-paranitroanilide 48 μM, 4° C.; read-out: PKBP12 rotamase inhibiting activity IC50
# Experimental: (Test 1) Test for Measuring Immunophilin FKBP12 Rotamase Activity
# The rotamase (peptidylprolyl isomerase) inhibiting activity of each test compound was measured by a known method (Harding et al., Nature 341, 758-760, 1989; Holts et al., J. Am. Chem. Soc. 115, 9925-9938, 1993.) To be more specific, a plastic cuvette was charged with 35 mM HEPES (pH 7.8), 12 nM human recombinant FKBP12 (Sigma, F-5398), 0.4 mg/mL α-chymotrypsin, and a test compound dissolved in DMSO at varying concentrations (DMSO's final concentration was 0.1%.) Subsequently, 24 mM of the substrate peptide, succinyl-Ala-Phe-Pro-Phe-paranitroanilide, as dissolved in trifluoroethanol containing 500 mM of LiCl was added to give a final concentration of 48 μM, whereupon reaction started. The reaction was carried out at 4° C. and the change in absorbance at 390 nm accompanying the liberation of the paranitroaniline product was monitored. A calculated initial rate minus the corresponding value in the absence of the enzyme was used as an index of rotamase activity. The rotamase inhibiting activity of a test compound was expressed in relative values (%) with respect to the control value of rotamase activity in the absence of the compound, and the concentration of the compound at which it was capable of inhibiting rotamase activity by 50% was calculated as an IC50 value from its concentration response curve.
# T1 sequence (P62942 whole entry): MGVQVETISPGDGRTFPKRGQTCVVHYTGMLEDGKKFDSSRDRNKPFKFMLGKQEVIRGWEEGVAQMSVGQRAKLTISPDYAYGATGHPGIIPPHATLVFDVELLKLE
row,Structure (SMILES),IC50
1,"COc1ccc(OCc2nnc([C@@H]3CCCN3C(=O)C(F)(F)C3(O)CC(C)(C)CC(C)(C)C3)o2)cc1OC [Compound 2, (S)-1-(2-(5-((3,4-Dimethoxyphenoxy)methyl)-1,3,4-oxadiazol-2-yl)pyrrolidin-1-yl)-2,2-difluoro-2-(1-hydroxy-3,3,5,5-tetramethylcyclohexyl)ethanone]",62 nM
2,"COc1ccc(OCc2noc([C@@H]3CCCN3C(=O)C(F)(F)C3(O)CC(C)(C)CC(C)(C)C3)n2)cc1OC [Compound 3, (S)-1-(2-(3-((3,4-Dimethoxyphenoxy)methyl)-1,2,4-oxadiazol-5-yl)pyrrolidin-1-yl)-2,2-difluoro-2-(1-hydroxy-3,3,5,5-tetramethylcyclohexyl)ethanone]",500 to 1000 nM
3,"COc1ccc(OCc2nnc([C@@H]3CCCN3C(=O)C(F)(F)C3(O)CC(C)(C)CC(C)(C)C3)s2)cc1OC [Compound 4, (S)-1-(2-(5-((3,4-Dimethoxyphenoxy)methyl)-1,3,4-thiadiazol-2-yl)pyrrolidin-1-yl)-2,2-difluoro-2-(1-hydroxy-3,3,5,5-tetramethylcyclohexyl)ethanone]",145 nM
4,"COc1ccc(OCc2nc([C@@H]3CCCN3C(=O)C(F)(F)C3(O)CC(C)(C)CC(C)(C)C3)n[nH]2)cc1OC [Compound 5, (S)-1-(2-(5-((3,4-Dimethoxyphenoxy)methyl)-4H-1,2,4-triazol-3-yl)pyrrolidin-1-yl)-2,2-difluoro-2-(1-hydroxy-3,3,5,5-tetramethylcyclohexyl)ethanone]",119 nM
5,"COc1ccc(OCc2nc([C@@H]3CCCN3C(=O)C(F)(F)C3(O)CC(C)(C)CC(C)(C)C3)nn2C)cc1OC [Compound 8, (S)-1-(2-(5-((3,4-Dimethoxyphenoxy)methyl)-1-methyl-1H-1,2,4-triazol-3-yl)pyrrolidin-1-yl)-2,2-difluoro-2-(1-hydroxy-3,3,5,5-tetramethylcyclohexyl)ethanone]",189 nM
6,"COc1ccc(OCc2cc([C@@H]3CCCN3C(=O)C(F)(F)C3(O)CC(C)(C)CC(C)(C)C3)nn2C)cc1OC [Compound 9, (S)-1-(2-(5-((3,4-Dimethoxyphenoxy)methyl)-1-methyl-1H-pyrazol-3-yl)pyrrolidin-1-yl)-2,2-difluoro-2-(1-hydroxy-3,3,5,5-tetramethylcyclohexyl)ethanone]",500 to 1000 nM
7,"COc1ccc(OCc2cc([C@@H]3CCCN3C(=O)C(F)(F)C3(O)CC(C)(C)CC(C)(C)C3)on2)cc1OC [Compound 10, (S)-1-(2-(3-((3,4-Dimethoxyphenoxy)methyl)isoxazol-5-yl)pyrrolidin-1-yl)-2,2-difluoro-2-(1-hydroxy-3,3,5,5-tetramethylcyclohexyl)ethanone]",500 to 1000 nM
8,"COc1ccc(OCc2cc([C@@H]3CCCN3C(=O)C(F)(F)C3(O)CC(C)(C)CC(C)(C)C3)n[nH]2)cc1OC [Compound 11, (S)-1-(2-(5-((3,4-Dimethoxyphenoxy)methyl)-1H-pyrazol-3-yl)pyrrolidin-1-yl)-2,2-difluoro-2-(1-hydroxy-3,3,5,5-tetramethylcyclohexyl)ethanone]",235 nM
9,COc1ccc(CCc2nnc([C@@H]3CCCN3C(=O)C(F)(F)C3(O)CC(C)(C)CC(C)(C)C3)o2)cc1OC [Compound 12],270 nM
10,COc1ccc(-c2nnc([C@@H]3CCCN3C(=O)C(F)(F)C3(O)CC(C)(C)CC(C)(C)C3)o2)cc1OC [Compound 13],434 nM
11,COc1ccc(Cc2nnc([C@@H]3CCCN3C(=O)C(F)(F)C3(O)CC(C)(C)CC(C)(C)C3)o2)cc1OC [Compound 16],142 nM
12,CC1(C)CC(C)(C)CC(O)(C(F)(F)C(=O)N2CCC[C@H]2c2nnc(COc3cccnc3)o2)C1 [Compound 17],356 nM
13,"CC1(C)CC(C)(C)CC(O)(C(F)(F)C(=O)N2CCC[C@H]2c2cc(CO)on2)C1 [Compound 18, (S)-2,2-Difluoro-2-(1-hydroxy-3,3,5,5-tetramethylcyclohexyl)-1-(2-(5-(hydroxymethyl)isoxazol-3-yl)pyrrolidin-1-yl)ethanone]",500 to 1000 nM
14,CC1(C)CC(C)(C)CC(O)(C(F)(F)C(=O)N2CCC[C@H]2c2nnc(COc3ccc(CO)cc3)o2)C1 [Compound 19],229 nM
15,COc1cc(OCc2nnc([C@@H]3CCCN3C(=O)C(F)(F)C3(O)CC(C)(C)CC(C)(C)C3)o2)cc(OC)c1OC [Compound 20],276 nM
16,"CC1(C)CC(C)(C)CC(O)(C(F)(F)C(=O)N2CCC[C@H]2c2nnc(CO)o2)C1 [Compound 22, (S)-2,2-Difluoro-2-(1-hydroxy-3,3,5,5-tetramethylcyclohexyl)-1-(2-(5-(hydroxymethy)-1,3,4-oxadiazol-2-yl)pyrrolidin-1-yl)ethanone]",1000 to 2000 nM
17,COc1ccccc1OCc1nnc([C@@H]2CCCN2C(=O)C(F)(F)C2(O)CC(C)(C)CC(C)(C)C2)o1 [Compound 25],401 nM
18,Cc1nnc([C@@H]2CCCN2C(=O)C(F)(F)C2(O)CC(C)(C)CC(C)(C)C2)o1 [Compound 27],500 to 1000 nM
19,COc1ccc(Oc2nnc([C@@H]3CCCN3C(=O)C(F)(F)C3(O)CC(C)(C)CC(C)(C)C3)o2)cc1OC [Compound 28],351 nM
20,"CC1(C)CC(C)(C)CC(O)(C(F)(F)C(=O)N2CCC[C@H]2c2nnc(COc3ccccc3)o2)C1 [Compound 29, (S)-2,2-Difluoro-2-(1-hydroxy-3,3,5,5-tetramethylcyclohexyl)-1-(2-(5-(phenoxymethyl)-1,3,4-oxadiazol-2-yl)pyrrolidin-1-yl)ethanone]",62 nM
21,COc1ccc(OCc2nnc([C@@H]3CCCN3C(=O)C(F)(F)C3(O)CC(C)(C)CC(C)(C)C3)o2)cn1 [Compound 31],389 nM
22,CC1(C)CC(C)(C)CC(O)(C(F)(F)C(=O)N2CCC[C@H]2c2nnc(COc3ccc4cc[nH]c4c3)o2)C1 [Compound 33],259 nM
23,CC1(C)CC(C)(C)CC(O)(C(F)(F)C(=O)N2CCC[C@H]2c2cc(CCc3cccnc3)on2)C1 [Compound 35],45 nM
24,CC1(C)CC(C)(C)CC(O)(C(F)(F)C(=O)N2CCC[C@H]2c2nnc(CN)o2)C1 [Compound 37],1000 to 2000 nM
25,"CC1(C)CC(C)(C)CC(O)(C(F)(F)C(=O)N2CCC[C@H]2c2nnc(CNC(=O)c3ccccc3)o2)C1 [Compound 38, (S)—N-((5-(1-(2,2-Difluoro-2-(1-hydroxy-3,3,5,5-tetramethylcyclohexyl)acetyl)pyrrolidin-2-yl)-1,3,4-oxadiazol-2-yl)methyl)benzamide]",500 to 1000 nM

# More lines, now with the values ahead:
row,IC50,Structure (SMILES)
1,500 to 1000 nM,"COc1ccc(OCc2cnc([C@@H]3CCCN3C(=O)C(F)(F)C3(O)CC(C)(C)CC(C)(C)C3)o2)cc1OC [Compound 6, (S)-1-(2-(5-((3,4-Dimethoxyphenoxy)methyl)oxazol-2-yl)pyrrolidin-1-yl)-2,2-difluoro-2-(1-hydroxy-3,3,5,5-tetramethylcyclohexyl)ethanone]"
2,500 to 1000 nM,"COc1ccc(OCc2cnc([C@@H]3CCCN3C(=O)C(F)(F)C3(O)CC(C)(C)CC(C)(C)C3)s2)cc1OC [Compound 7, (S)-1-(2-(5-((3,4-Dimethoxyphenoxy)methyl)thiazol-2-yl)pyrrolidin-1-yl)-2,2-difluoro-2-(1-hydroxy-3,3,5,5-tetramethylcyclohexyl)ethanone]"
3,500 to 1000 nM,COc1ccc(CCCc2nnc([C@@H]3CCCN3C(=O)C(F)(F)C3(O)CC(C)(C)CC(C)(C)C3)o2)cc1OC [Compound 14]
4,64 nM,"COc1cc(OCc2cc([C@@H]3CCCN3C(=O)C(F)(F)C3(O)CC(C)(C)CC(C)(C)C3)no2)cc(OC)c1OC [Compound 21, (S)-2,2-Difluoro-2-(1-hydroxy-3,3,5,5-tetramethylcyclohexyl)-1-(2-(5-((3,4,5-trimethoxyphenoxy)methyl)isoxazol-3-yl)pyrrolidin-1-yl)ethanone]"
5,1000 to 2000 nM,"CC1(C)CC(C)(C)CC(O)(C(F)(F)C(=O)N2CCC[C@H]2c2nnc(COS(C)(=O)=O)o2)C1 [Compound 23, (S)-(5-(1-(2,2-Difluoro-2-(1-hydroxy-3,3,5,5-tetramethylcyclohexyl)acetyl)pyrrolidin-2-yl)-1,3,4-oxadiazol-2-yl)methyl methanesulfonate]"
6,218 nM,COc1ccc(OCc2nnc([C@@H]3CCCN3C(=O)C(F)(F)C3(O)CC(C)(C)CC(C)(C)C3)o2)cc1 [Compound 24]
7,500 to 1000 nM,COc1cccc(OCc2nnc([C@@H]3CCCN3C(=O)C(F)(F)C3(O)CC(C)(C)CC(C)(C)C3)o2)c1 [Compound 26]
8,220 nM,COc1ccc(OCc2nnc([C@@H]3CCCN3C(=O)C(F)(F)C3(O)CC(C)(C)CC(C)(C)C3)o2)c(OC)c1 [Compound 30]
9,165 nM,CC1(C)CC(C)(C)CC(O)(C(F)(F)C(=O)N2CCC[C@H]2c2nnc(COc3ccc4c(c3)OCO4)o2)C1 [Compound 32]
10,500 to 1000 nM,CC1(C)CC(C)(C)CC(O)(C(F)(F)C(=O)N2CCC[C@H]2c2nnc(Cc3cccnc3)o2)C1 [Compound 34]
11,1000 to 2000 nM,CC1(C)CC(C)(C)CC(O)(C(F)(F)C(=O)N2CCC[C@H]2c2nnc(COc3cncnc3)o2)C1 [Compound 36]
12,500 to 1000 nM,"CN(C)Cc1nnc([C@@H]2CCCN2C(=O)C(F)(F)C2(O)CC(C)(C)CC(C)(C)C2)o1 [Compound 39, (S)-1-(2-(5-((Dimethylamino)methyl)-1,3,4-oxadiazol-2-yl)pyrrolidin-1-yl)-2,2-difluoro-2-(1-hydroxy-3,3,5,5-tetramethylcyclohexyl)ethanone]"
